Measurements from patent US11147812B2, “Tyrosine analogues derivatives as Rho-kinase inhibitors” (Chiesi Farmaceutici S.p.A., priority 2017, dated 2021).

Assays:
Rho kinase 1 (ROCK1) = Rho kinase 1 (ROCK1) (Homo sapiens, UniProt Q13464); assay: In vitro Rho kinase inhibitory activity assay (ADP-Glo), ROCK1; assay type: biochemical; settings: 10 μM ATP, 25° C., Ki by Cheng-Prusoff
Description: (§1) The effectiveness of compounds of the present invention to inhibit Rho kinase activity can be determined in a 10 μl assay containing 40 mM Tris pH7.5, 20 mM MgCl2 0.1 mg/ml BSA, 50 μM DTT and 2.5 μM peptide substrate (Myelin Basic Protein) using an ADP-Glo kit (Promega). Compounds were dissolved in DMSO such that the final concentration of DMSO was 1% in the assay. All reactions/incubations are performed at 25° C. Compound (2 ul) and either Rho kinase 1 or 2 (4 μl) were mixed and incubated for 30 mins. Reactions were initiated by addition of ATP (4 μl) such that the final concentration of ATP in the assay was 10 μM. After a 1 hour incubation 10 μl of ADP-Glo Reagent was added and after a further 45 minute incubation 20 ul of Kinase Detection Buffer was added and the mixture incubated for a further 30 minutes. The luminescent signal was measured on a luminometer. […] Compounds were tested in dose-response format and the inhibition of kinase activity was calculated at each concentration of compound. To determine the IC50 (concentration of compound required to inhibit 50% of the enzyme activity) data were fit to a plot of % inhibition vs Log10 compound concentration using a sigmoidal fit with a variable slope and fixing the maximum to 100% and the minimum to 0%. To determine the Ki values the Cheng-Prusoff equation was utilized (Ki=IC50/(1+[S]/Km)

Rho kinase 2 (ROCK2) = Rho kinase 2 (ROCK2) (Homo sapiens, UniProt O75116); assay: In vitro Rho kinase inhibitory activity assay (ADP-Glo), ROCK2; assay type: biochemical; settings: 10 μM ATP, 25° C., Ki by Cheng-Prusoff
Rho kinase 2 (ROCK2), sequence (O75116 whole entry): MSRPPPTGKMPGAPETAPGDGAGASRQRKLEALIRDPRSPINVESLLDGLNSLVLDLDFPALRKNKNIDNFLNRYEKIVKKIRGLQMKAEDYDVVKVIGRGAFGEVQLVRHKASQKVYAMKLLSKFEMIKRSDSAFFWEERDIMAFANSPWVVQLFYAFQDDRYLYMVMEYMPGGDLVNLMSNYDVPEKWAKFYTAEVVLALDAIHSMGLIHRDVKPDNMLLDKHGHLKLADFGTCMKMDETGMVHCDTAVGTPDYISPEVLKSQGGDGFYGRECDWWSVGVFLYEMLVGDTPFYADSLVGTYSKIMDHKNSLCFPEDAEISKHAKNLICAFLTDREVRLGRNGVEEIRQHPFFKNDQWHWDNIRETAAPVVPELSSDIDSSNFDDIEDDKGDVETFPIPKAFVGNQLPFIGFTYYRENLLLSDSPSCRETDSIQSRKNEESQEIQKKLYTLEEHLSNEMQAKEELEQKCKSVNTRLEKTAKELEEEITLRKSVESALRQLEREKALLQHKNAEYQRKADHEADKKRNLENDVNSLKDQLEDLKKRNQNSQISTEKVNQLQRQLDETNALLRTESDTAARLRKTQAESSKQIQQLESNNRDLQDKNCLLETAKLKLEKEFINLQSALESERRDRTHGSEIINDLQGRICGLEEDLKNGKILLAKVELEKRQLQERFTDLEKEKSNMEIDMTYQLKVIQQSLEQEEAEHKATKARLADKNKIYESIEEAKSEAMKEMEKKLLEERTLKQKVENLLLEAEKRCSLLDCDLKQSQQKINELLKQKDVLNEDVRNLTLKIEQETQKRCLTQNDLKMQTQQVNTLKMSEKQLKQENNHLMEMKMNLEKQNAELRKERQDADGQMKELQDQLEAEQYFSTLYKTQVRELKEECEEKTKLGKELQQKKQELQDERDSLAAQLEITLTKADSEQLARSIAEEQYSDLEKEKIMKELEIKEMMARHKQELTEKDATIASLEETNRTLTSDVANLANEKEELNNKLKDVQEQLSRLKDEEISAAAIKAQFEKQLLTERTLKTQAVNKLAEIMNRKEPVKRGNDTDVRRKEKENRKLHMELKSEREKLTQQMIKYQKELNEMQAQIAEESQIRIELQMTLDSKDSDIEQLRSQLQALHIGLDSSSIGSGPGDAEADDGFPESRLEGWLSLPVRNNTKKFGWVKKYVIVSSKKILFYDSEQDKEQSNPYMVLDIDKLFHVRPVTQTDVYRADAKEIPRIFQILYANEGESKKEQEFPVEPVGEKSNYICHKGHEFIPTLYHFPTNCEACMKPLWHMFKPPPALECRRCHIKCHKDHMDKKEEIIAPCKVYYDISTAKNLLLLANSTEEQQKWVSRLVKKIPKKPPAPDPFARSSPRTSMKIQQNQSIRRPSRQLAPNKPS
Description: as §1

Rho kinase 1 (ROCK1), sequence (Q13464 whole entry): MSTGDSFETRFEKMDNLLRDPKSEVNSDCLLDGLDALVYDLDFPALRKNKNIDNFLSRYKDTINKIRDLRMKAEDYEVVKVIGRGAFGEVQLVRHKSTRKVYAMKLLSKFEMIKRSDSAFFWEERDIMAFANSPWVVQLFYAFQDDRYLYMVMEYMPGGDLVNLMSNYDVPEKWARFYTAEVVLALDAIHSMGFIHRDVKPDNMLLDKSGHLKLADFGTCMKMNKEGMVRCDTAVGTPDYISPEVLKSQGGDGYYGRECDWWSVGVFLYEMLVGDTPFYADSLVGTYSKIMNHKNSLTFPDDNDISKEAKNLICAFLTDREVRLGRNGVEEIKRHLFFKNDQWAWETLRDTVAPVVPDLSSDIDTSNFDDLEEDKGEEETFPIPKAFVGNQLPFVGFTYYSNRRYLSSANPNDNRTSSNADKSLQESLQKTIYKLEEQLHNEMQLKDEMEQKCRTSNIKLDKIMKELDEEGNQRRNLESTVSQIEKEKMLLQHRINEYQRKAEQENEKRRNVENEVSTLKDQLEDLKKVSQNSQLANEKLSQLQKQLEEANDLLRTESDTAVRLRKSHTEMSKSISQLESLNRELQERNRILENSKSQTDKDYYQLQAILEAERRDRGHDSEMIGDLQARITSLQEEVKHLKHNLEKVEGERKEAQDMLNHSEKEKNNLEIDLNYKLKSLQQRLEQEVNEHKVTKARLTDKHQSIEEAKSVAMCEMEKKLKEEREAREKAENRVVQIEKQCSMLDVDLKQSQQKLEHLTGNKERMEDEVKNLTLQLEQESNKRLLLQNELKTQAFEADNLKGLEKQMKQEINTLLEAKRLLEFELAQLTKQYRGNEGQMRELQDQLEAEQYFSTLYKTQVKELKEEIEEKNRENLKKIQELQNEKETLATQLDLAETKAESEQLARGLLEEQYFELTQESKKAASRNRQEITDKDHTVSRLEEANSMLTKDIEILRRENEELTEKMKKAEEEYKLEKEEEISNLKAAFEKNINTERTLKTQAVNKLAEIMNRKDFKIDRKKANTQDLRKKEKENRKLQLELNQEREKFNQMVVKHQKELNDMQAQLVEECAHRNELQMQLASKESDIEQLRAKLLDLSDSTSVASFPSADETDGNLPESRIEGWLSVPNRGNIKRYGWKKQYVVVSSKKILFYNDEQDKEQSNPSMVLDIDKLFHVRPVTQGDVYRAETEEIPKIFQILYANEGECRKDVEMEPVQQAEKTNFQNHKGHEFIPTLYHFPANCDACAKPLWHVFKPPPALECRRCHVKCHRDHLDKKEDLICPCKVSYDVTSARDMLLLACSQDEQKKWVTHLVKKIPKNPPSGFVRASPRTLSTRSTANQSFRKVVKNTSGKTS

| Ki (Rho kinase 1 (ROCK1)) | Ki (Rho kinase 2 (ROCK2)) | SMILES |
| --- | --- | --- |
| < 3 nM | < 3 nM | Cc1c[nH]c2nccc(Oc3ccc(C(N)CC(=O)N4CCN(Cc5ccccc5)CC4)cc3)c12 (centres unmarked) [Example 7, 3-amino-1-(4-benzylpiperazin-1-yl)-3-(4-((3-methyl-1H-pyrrolo[2,3-b]pyridin-4-yl)oxy)phenyl)propan-1-one] |
| 3 to 30 nM | 3 to 30 nM | CN(C)CCCN1CNCC(Cc2ccc(Oc3ccnc4[nH]cc(C#N)c34)cc2)C1=O (centres unmarked) [Example 45, 4-(4-((1-(3-(dimethylamino)propyl)-6-oxohexahydropyrimidin-5-yl)methyl)phenoxy)-1H-pyrrolo[2,3-b]pyridine-3-carbonitrile] |
| < 3 nM | < 3 nM | CNCC(Cc1ccc(Oc2ccnc3[nH]cc(C)c23)cc1)C(=O)N1CCN(Cc2ccccc2)CC1 (centres unmarked) [Example 36, 1-(4-benzylpiperazin-1-yl)-2-(4-((3-methyl-1H-pyrrolo[2,3-b]pyridin-4-yl)oxy)benzyl)-3-(methylamino)propan-1-one] |
| 3 to 30 nM | 3 to 30 nM | Cc1c[nH]c2nccc(Oc3ccc(C(CN)CC(=O)N4CCN(C5CC5)CC4)cc3)c12 (centres unmarked) [Example 16, 4-amino-1-(4-cyclopropylpiperazin-1-yl)-3-(4-((3-methyl-1H-pyrrolo[2,3-b]pyridin-4-yl)oxy)phenyl)butan-1-one] |
| < 3 nM | < 3 nM | Cc1c[nH]c2nccc(Oc3ccc(CC(CN)C(=O)N4CCN(C5CC5)CC4)cc3)c12 (centres unmarked) [Example 2, 3-amino-1-(4-cyclopropylpiperazin-1-yl)-2-(4-((3-methyl-1H-pyrrolo[2,3-b]pyridin-4-yl)oxy)benzyl)propan-1-one] |
| < 3 nM | < 3 nM | Cc1c[nH]c2nccc(Oc3ccc([C@H]4CCN[C@@H]4C(=O)NCCc4ccncc4)cc3)c12 (racemic) [Example 20, rac-(2S,3R)-3-(4-((3-methyl-1H-pyrrolo[2,3-b]pyridin-4-yl)oxy)phenyl)-N-(2-(pyridin-4-yl)ethyl)pyrrolidine-2-carboxamide] |
| < 3 nM | < 3 nM | Cc1c[nH]c2nccc(Oc3ccc(CC(CN)C(=O)N4C[C@@H]5C[C@H]4CN5C)cc3F)c12 (single isomer, unassigned) [Example 4B] |
| > 30 nM | > 30 nM | COCCCN1CNC(c2ccc(Oc3ccnc4[nH]cc(C)c34)cc2)CC1=O (centres unmarked) [Example 39, 3-(3-methoxypropyl)-6-(4-((3-methyl-1H-pyrrolo[2,3-b]pyridin-4-yl)oxy)phenyl)tetrahydropyrimidin-4(1H)-one] |
| > 30 nM | > 30 nM | Cc1c[nH]c2nccc(Oc3ccc(C4CC(=O)N(CCCN(C)C)CN4)cc3)c12 (centres unmarked) [Example 38, 3-(3-(dimethylamino)propyl)-6-(4-((3-methyl-1H-pyrrolo[2,3-b]pyridin-4-yl)oxy)phenyl)tetrahydropyrimidin-4(1H)-one] |
| > 30 nM | > 30 nM | CN1CCC(NC(=O)C(N)c2ccc(Oc3ccnc4[nH]ccc34)cc2)CC1 (centres unmarked) [Example 14, 2-(4-((1H-pyrrolo[2,3-b]pyridin-4-yl)oxy)phenyl)-2-amino-N-(1-methylpiperidin-4-yl)acetamide] |
| < 3 nM | < 3 nM | NCC(Cc1ccc(Oc2ccnc3[nH]ccc23)cc1)C(=O)N1CCN(Cc2ccccc2)CC1 (centres unmarked) [Example 32, 2-(4-((1H-pyrrolo[2,3-b]pyridin-4-yl)oxy)benzyl)-3-amino-1-(4-benzylpiperazin-1-yl)propan-1-one] |
| < 3 nM | < 3 nM | Cc1c[nH]c2nccc(Oc3ccc(CC(CN)C(=O)NC4CCCCC4)cc3F)c12 (centres unmarked) [Example 28, 3-amino-N-cyclohexyl-2-(3-fluoro-4-((3-methyl-1H-pyrrolo[2,3-b]pyridin-4-yl)oxy)benzyl)propanamide] |
| 3 to 30 nM | < 3 nM | CN1C[C@@H]2C[C@H]1CN2C(=O)C(CN)Cc1ccc(Oc2ccnc3[nH]cc(C#N)c23)cc1 (stereo partly drawn) [Example 48, 4-(4-(2-(aminomethyl)-3-((1S,4S)-5-methyl-2,5-diazabicyclo[2.2.1]heptan-2-yl)-3-oxopropyl)phenoxy)-1H-pyrrolo[2,3-b]pyridine-3-carbonitrile] |
| < 3 nM | < 3 nM | CN1CCC(NC(=O)C(CN)Cc2ccc(Oc3ccnc4[nH]cc(C#N)c34)cc2)CC1 (centres unmarked) [Example 46, 3-amino-2-(4-((3-cyano-1H-pyrrolo[2,3-b]pyridin-4-yl)oxy)benzyl)-N-(1-methylpiperidin-4-yl)propanamide] |
| < 3 nM | < 3 nM | Cc1c[nH]c2nccc(Oc3ccc(C(CN)CC(=O)N4CCN(Cc5ccccc5)CC4)cc3)c12 (centres unmarked) [Example 15, 4-amino-1-(4-benzylpiperazin-1-yl)-3-(4-((3-methyl-1H-pyrrolo[2,3-b]pyridin-4-yl)oxy)phenyl)butan-1-one] |
| < 3 nM | < 3 nM | Cc1c[nH]c2nccc(Oc3ccc(CC(CN)C(=O)NC4CCCCC4)cc3)c12 (centres unmarked) [Example 31, 3-amino-N-cyclohexyl-2-(4-((3-methyl-1H-pyrrolo[2,3-b]pyridin-4-yl)oxy)benzyl)propanamide] |
| 3 to 30 nM | 3 to 30 nM | NCC(Cc1ccc(Oc2ccnc3[nH]ccc23)cc1)C(=O)N1CCN(Cc2ccccc2)CC1 (single isomer, unassigned) [Example 32A, 2-(4-((1H-pyrrolo[2,3-b]pyridin-4-yl)oxy)benzyl)-3-amino-1-(4-benzylpiperazin-1-yl)propan-1-one] |
| < 3 nM | < 3 nM | Cc1c[nH]c2nccc(Oc3ccc(CC(CN)C(=O)N4CCN(Cc5ccccn5)CC4)cc3F)c12 (single isomer, unassigned) [Example 5B, 3-amino-2-(3-fluoro-4-((3-methyl-1H-pyrrolo[2,3-b]pyridin-4-yl)oxy)benzyl)-1-(4-(pyridin-2-ylmethyl)piperazin-1-yl)propan-1-one] |
| 3 to 30 nM | 3 to 30 nM | Cc1c[nH]c2nccc(Oc3ccc(CC(CN)C(=O)N4C[C@@H]5C[C@H]4CN5C)cc3F)c12 (single isomer, unassigned) [Example 4A] |
| 3 to 30 nM | 3 to 30 nM | Cc1c[nH]c2nccc(Oc3ccc(CC4CNCN(CCCN(C)C)C4=O)cc3F)c12 (centres unmarked) [Example 41, 3-(3-(dimethylamino)propyl)-5-(3-fluoro-4-((3-methyl-1H-pyrrolo[2,3-b]pyridin-4-yl)oxy)benzyl)tetrahydropyrimidin-4(1H)-one] |
| < 3 nM | < 3 nM | Cc1c[nH]c2nccc(Oc3ccc(CC(CN(C)C)C(=O)N4CCN(Cc5ccccc5)CC4)cc3)c12 (centres unmarked) [Example 37, 1-(4-benzylpiperazin-1-yl)-3-(dimethylamino)-2-(4-((3-methyl-1H-pyrrolo[2,3-b]pyridin-4-yl)oxy)benzyl)propan-1-one] |
| 3 to 30 nM | 3 to 30 nM | Cc1c[nH]c2nccc(Oc3ccc([C@H]4CCN[C@@H]4C(=O)NCCCN(C)C)cc3)c12 (racemic) [Example 26, rac-(2R,3S)-N-(3-(dimethylamino)propyl)-3-(4-((3-methyl-1H-pyrrolo[2,3-b]pyridin-4-yl)oxy)phenyl)pyrrolidine-2-carboxamide] |
| < 3 nM | < 3 nM | Cc1c[nH]c2nccc(Oc3ccc(CC(CN)C(=O)NC4CCN(C)CC4)cc3F)c12 (centres unmarked) [Example 3, 3-amino-2-(3-fluoro-4-((3-methyl-1H-pyrrolo[2,3-b]pyridin-4-yl)oxy)benzyl)-N-(1-methylpiperidin-4-yl)propanamide] |
| > 30 nM | > 30 nM | Cc1cc2c(Oc3ccc(CC(CN)C(=O)N4CCN(Cc5ccccc5)CC4)cc3)ccnc2[nH]1 (centres unmarked) [Example 6, 3-amino-1-(4-benzylpiperazin-1-yl)-2-(4-((2-methyl-1H-pyrrolo[2,3-b]pyridin-4-yl)oxy)benzyl)propan-1-one] |
| 3 to 30 nM | 3 to 30 nM | NCC(Cc1ccc(Oc2ccnc3[nH]ccc23)cc1)C(=O)NC1CCOCC1 (centres unmarked) [Example 34, 2-(4-((1H-pyrrolo[2,3-b]pyridin-4-yl)oxy)benzyl)-3-amino-N-(tetrahydro-2H-pyran-4-yl)propanamide] |
| 3 to 30 nM | < 3 nM | COCCCNC(=O)[C@H]1NCC[C@@H]1c1ccc(Oc2ccnc3[nH]cc(C)c23)cc1 (racemic) [Example 21, rac-(2S,3R)-N-(3-methoxypropyl)-3-(4-((3-methyl-1H-pyrrolo[2,3-b]pyridin-4-yl)oxy)phenyl)pyrrolidine-2-carboxamide] |
| < 3 nM | < 3 nM | Cc1c[nH]c2nccc(Oc3ccc(CC(CN)C(=O)N4C[C@@H]5C[C@H]4CN5C)cc3F)c12 (stereo partly drawn) [Example 4, 3-amino-2-(3-fluoro-4-((3-methyl-1H-pyrrolo[2,3-b]pyridin-4-yl)oxy)benzyl)-1-((1S,4S)-5-methyl-2,5-diazabicyclo[2.2.1]heptan-2-yl)propan-1-one] |
| 3 to 30 nM | 3 to 30 nM | Cc1c[nH]c2nccc(Oc3ccc([C@H]4CCN[C@@H]4C(=O)NC4CCOCC4)cc3)c12 (racemic) [Example 24, rac-(2S,3R)-3-(4-((3-methyl-1H-pyrrolo[2,3-b]pyridin-4-yl)oxy)phenyl)-N-(tetrahydro-2H-pyran-4-yl)pyrrolidine-2-carboxamide] |
